This is an account of results in ChEMBL document CHEMBL6078679, “Structure-Guided Discovery of Subtype Selective SIRT6 Inhibitors with a β-Carboline Skeleton for the Treatment of Breast Cancer” (J Med Chem, 2024).

By IC50 is commonly meant the midpoint of a concentration-inhibition curve. Lower therefore signals greater potency.

The target of assay [1] is T1, NAD-dependent protein deacetylase sirtuin-1 (Homo sapiens, UniProt Q96EB6).
T1 sequence (Q96EB6 whole entry): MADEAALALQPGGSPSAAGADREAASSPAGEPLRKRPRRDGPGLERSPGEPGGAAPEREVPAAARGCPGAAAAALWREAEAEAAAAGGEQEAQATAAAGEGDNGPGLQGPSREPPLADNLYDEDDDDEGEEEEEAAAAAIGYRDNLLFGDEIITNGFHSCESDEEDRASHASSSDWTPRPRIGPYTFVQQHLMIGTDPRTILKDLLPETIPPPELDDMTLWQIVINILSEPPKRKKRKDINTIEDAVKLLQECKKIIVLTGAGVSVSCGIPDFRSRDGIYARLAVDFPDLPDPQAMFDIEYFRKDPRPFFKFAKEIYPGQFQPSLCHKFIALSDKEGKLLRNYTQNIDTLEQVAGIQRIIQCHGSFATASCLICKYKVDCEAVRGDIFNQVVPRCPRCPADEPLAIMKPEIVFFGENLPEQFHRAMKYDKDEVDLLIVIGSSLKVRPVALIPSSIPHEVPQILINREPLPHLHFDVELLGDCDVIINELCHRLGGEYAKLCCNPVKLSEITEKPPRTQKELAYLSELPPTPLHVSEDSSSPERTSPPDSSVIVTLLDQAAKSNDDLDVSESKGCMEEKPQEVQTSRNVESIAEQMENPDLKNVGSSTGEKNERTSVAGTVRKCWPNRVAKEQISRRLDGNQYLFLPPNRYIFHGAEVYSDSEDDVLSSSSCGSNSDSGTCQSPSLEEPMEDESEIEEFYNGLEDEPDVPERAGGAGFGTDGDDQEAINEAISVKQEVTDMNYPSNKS
The assay can be described thus: Inhibition of SIRT1 (unknown origin) deacetylation activity using Boc-Lys(Ac)-AMC as substrate incubated for 2 hrs by BioTek microplate reader analysis.

Assay [2] concerns the target T2, NAD-dependent protein deacetylase sirtuin-2 (Homo sapiens, UniProt Q8IXJ6).
T2 sequence (Q8IXJ6 whole entry): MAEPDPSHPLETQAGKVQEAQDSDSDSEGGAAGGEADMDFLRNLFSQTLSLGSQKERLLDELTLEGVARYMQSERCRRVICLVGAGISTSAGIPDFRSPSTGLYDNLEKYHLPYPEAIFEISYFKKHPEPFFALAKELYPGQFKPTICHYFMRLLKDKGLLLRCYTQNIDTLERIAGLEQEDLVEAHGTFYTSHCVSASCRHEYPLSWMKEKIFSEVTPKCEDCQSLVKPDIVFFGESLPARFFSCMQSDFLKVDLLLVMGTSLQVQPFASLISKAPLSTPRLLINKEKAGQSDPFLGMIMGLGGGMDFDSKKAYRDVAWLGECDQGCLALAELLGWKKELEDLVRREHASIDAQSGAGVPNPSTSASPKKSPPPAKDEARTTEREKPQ
The assay can be described thus: Inhibition of SIRT2 (unknown origin) deacetylation activity using Boc-Lys(Ac)-AMC as substrate incubated for 2 hrs by BioTek microplate reader analysis.

In assay [3] the target is T3, NAD-dependent protein lipoamidase sirtuin-4, mitochondrial (Homo sapiens, UniProt Q9Y6E7).
T3 sequence (Q9Y6E7 whole entry): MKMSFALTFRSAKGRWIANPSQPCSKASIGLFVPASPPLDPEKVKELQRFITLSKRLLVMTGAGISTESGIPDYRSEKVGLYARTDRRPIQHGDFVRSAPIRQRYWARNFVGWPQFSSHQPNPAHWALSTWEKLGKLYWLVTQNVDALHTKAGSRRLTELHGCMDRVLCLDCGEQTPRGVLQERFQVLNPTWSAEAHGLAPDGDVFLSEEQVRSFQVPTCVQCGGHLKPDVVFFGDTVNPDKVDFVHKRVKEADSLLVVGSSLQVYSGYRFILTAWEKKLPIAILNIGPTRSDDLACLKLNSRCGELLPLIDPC
The assay is described as follows: Inhibition of SIRT4 (unknown origin) deacetylation activity using Boc-Lys(Ac)-AMC as substrate incubated for 2 hrs by BioTek microplate reader analysis.

The target of assay [4] is NAD-dependent protein deacylase sirtuin-5, mitochondrial (Homo sapiens, UniProt Q9NXA8). The assay can be described thus: Inhibition of SIRT5 (unknown origin) deacetylation activity using Boc-Lys(Ac)-AMC as substrate incubated for 2 hrs by BioTek microplate reader analysis.
Sequence of NAD-dependent protein deacylase sirtuin-5, mitochondrial (Q9NXA8 whole entry): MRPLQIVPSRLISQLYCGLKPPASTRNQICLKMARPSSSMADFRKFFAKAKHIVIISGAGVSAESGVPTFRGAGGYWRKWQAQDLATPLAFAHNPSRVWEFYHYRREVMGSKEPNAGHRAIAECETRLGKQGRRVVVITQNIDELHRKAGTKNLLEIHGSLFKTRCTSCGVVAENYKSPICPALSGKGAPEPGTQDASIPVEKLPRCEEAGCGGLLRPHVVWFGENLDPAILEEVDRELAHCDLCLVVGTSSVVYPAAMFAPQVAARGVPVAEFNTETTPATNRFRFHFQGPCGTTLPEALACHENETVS
Assay [5] deals with T4, NAD-dependent protein deacetylase sirtuin-7 (Homo sapiens, UniProt Q9NRC8).
T4 sequence (Q9NRC8 whole entry): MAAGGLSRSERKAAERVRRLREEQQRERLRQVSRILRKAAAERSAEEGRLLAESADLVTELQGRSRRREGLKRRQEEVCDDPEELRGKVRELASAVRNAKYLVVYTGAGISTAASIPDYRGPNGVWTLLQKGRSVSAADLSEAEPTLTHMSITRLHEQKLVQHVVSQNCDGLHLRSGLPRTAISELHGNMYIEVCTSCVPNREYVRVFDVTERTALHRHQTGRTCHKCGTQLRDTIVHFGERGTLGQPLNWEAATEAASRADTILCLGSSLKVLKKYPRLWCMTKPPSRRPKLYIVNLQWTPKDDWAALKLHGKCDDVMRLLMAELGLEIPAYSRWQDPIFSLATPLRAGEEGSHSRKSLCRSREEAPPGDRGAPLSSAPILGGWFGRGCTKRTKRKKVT
The assay is described as follows: Inhibition of SIRT7 (unknown origin) deacetylation activity using Boc-Lys(Ac)-AMC as substrate incubated for 2 hrs by BioTek microplate reader analysis.

Assay [6] has as its target T5, NAD-dependent protein deacetylase sirtuin-3, mitochondrial (Homo sapiens, UniProt Q9NTG7).
T5 sequence (Q9NTG7 whole entry): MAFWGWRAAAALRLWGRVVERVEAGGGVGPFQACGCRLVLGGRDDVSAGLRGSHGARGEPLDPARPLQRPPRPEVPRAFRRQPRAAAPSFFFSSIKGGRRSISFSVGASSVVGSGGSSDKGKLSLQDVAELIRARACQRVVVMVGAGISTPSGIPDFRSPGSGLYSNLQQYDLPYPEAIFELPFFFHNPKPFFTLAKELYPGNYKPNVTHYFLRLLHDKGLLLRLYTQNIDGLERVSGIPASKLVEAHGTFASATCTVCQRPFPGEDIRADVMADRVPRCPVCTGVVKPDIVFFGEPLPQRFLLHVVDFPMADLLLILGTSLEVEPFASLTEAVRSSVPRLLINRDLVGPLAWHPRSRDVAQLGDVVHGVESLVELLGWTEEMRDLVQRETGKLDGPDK
The assay is described as follows: Inhibition of full length N-terminal his-tagged SIRT3 (unknown origin) deacetylation activity expressed in Escherichia coli BL21 (DE3) using RHKK-Ac-AMC as substrate incubated for 2 hrs by FDL analysis relative to control.

For `N#Cc1ccc(Cn2c3ccc(Cl)cc3c3cc(C(=O)NCc4ccccn4)ncc32)cc1`, the IC50 in assay [1] is 312 µM; in assay [2], 157 µM; in assay [3] it was 274 µM; in assay [4] it was greater than 500 µM; in assay [5], greater than 500 µM.

In turn, `COC(=O)c1cc2c(cn1)[nH]c1ccccc12` [BETA-CCM] registered a half-maximal inhibitory concentration (IC50) in assay [6] greater than 100 µM.

In assay [6], `CC(/C=C/C(=O)NO)=C\[C@@H](C)C(=O)c1ccc(N(C)C)cc1` [TRICHOSTATIN] came in with an IC50 of 7.88 µM.
